Patent publication US11850237B2, “Compounds and methods for treating influenza” (priority 2009, dated 2023)
In brackets after ≈: the same amount, converted by molar mass. Where two headings read alike, the source gives them in different places.

How the values were obtained:
Adenovirus = assay: Activity against other respiratory viruses: Adenovirus; format: cell-based; conditions: unidentified adenovirus
H1N1 A/PR/8/34 (PR8) = assay: microbe, parasite or virus in culture; format: cell-based, influenza A virus; conditions: for EC50 / EC90: Influenza A virus; for EC90: read-out: Virus Yield EC90; for antiviral activity against PR8, overall rating: PR8 influenza A virus, Table 1
MDCK cells [1] = assay: Toxicity / cell viability by MTT in uninfected MDCK cells; format: cell-based, canine; conditions: MDCK cells, MTT
Procedure: (§1) Cell culture, treatment and transfection-Madin-Darby canine kidney (MDCK) cells, and human A549 alveolar type II-like epithelial, Jurkat Tlymphoblastoid and U397 monocytic leukemia cells were grown at 37° C. in a 5% CO2 atmosphere in RPMI 1640 (Invitrogen), supplemented with 10% fetal calf serum (FCS), 2 mM glutamine and antibiotics. Test compounds were added immediately after 1-hour adsorption period, and kept in the culture medium for the entire time of the experiment, unless differently specified. […] Cell viability was determined by the 3-(4,5-dimethylthiazol-2-yl)-2,5-diphenyltetrazolium bromide (MTT) to MTT formazan conversion assay (Sigma-Aldrich) as described previously. Microscopical examination of mock-infected or virus-infected cells was performed using a Leica DM-IL microscope and images were captured on a Leica DC 300 camera using Leica Image-Manager500 software.

[2] = as above; format: cell-based, canine; conditions: dog, uninfected MDCK cells; uninfected cells
Procedure: as §1

[3] = system: H5N9 low-pathogenicity avian strain A/Ck/It/9097/97 (A/Ck); assay: microbe, parasite or virus in culture; format: cell-based; conditions: Influenza A virus, H5N9, MDCK, 24 h, read-out: EC50, inhibition of virus replication
[4] = system: H1N1 A/PR/8/34 (PR8) virus; assay: microbe, parasite or virus in culture; format: cell-based, influenza A virus; conditions: for EC50: Influenza A virus, MDCK, 24 h; for PR8 Yield: no zanamivir (Control)
Coronavirus = assay: Activity against other respiratory viruses: Coronavirus; format: cell-based
[5] = Double-blind placebo controlled trials in influenza-like illness; format: in vivo, human
Procedure: Evaluation of the effect of twice daily nitazoxanide for 5 days on the duration of symptoms in pediatric patients and adults with influenza-like illnesses was conducted. Two double-blind placebo controlled trials were conducted. Children 12 months-11 years of age were given NTZ suspension (n=100, 50 per group) and Patients ≥12 years of age were given NTZ 500 mg tablets (n=86, 43 per group). Single center trials were conducted. Studies were based on TAMIFLU® trials. The trials followed specific Inclusion/exclusion criteria. Inclusion required children age 1-11 years of patients ≥12 years of age with a fever >100° F. with ≥1 respiratory symptom (including cough, nasal discharge, sneezing, sore throat, etc.) and/or with ≥1 constitutional symptom (myalgia, malaise, fatigue, headache, chills/sweat, etc.). Major exclusions included symptom duration ≥72 hours, pregnancy or breastfeeding, concurrent antibiotics/antiviral medication, or a history of asthma or other pulmonary disease.
Patients were randomized to receive NTZ or placebo b.i.d. for 5 days. Nasopharyngeal swab collected at baseline for rapid direct immunofluorescence assay (SimulFluor respiratory Screen) for 7 viruses (RSV, Influenza A & B, Parainfluenza 1-3, and Adenovirus). Symptoms recorded in a daily diary by the patient (or parent) with each symptom graded on a scale of 0 to 3: absent, mild, moderate, severe. Tissue was stored in a ziplock plastic bag and collected daily by study personnel for weighing. A follow up physical examination was conducted on day 7. The primary endpoint was the time from baseline to each symptom returning to absent or mild (<2). Secondary endpoints include antibiotic use, day 7 respiratory symptoms, daily tissue/mucus weight.

[6] = Cytotoxicity (CC50) in the other respiratory virus assays
A/WSN/33 (WSN) = assay: microbe, parasite or virus in culture; format: cell-based; conditions: Influenza A virus, MDCK, 24 h, read-out: EC50, inhibition of virus replication
influenza = assay: Clinical trials, treatment of influenza; format: in vivo, human; conditions: orally 300 mg or 600 mg twice daily for 5 days
Procedure: Low dose administration of thiazolides such as NTZ to treat virus infection. NTZ can be administered orally at a dose of 300 mg or 600 mg twice daily for 5 days as a treatment of influenza. […] Preferably, the dosage of nitazoxanide is 300 mg twice daily for 5 days, which is less than the dosage of NTZ needed to treat intestinal infections, thereby enabling a reduction of side effects associated with higher dosages. Thiazolides can also be administered as a modified release bi-layer tablet. As such, thiazolides can be administered in 100 mg, 200 mg, 300 mg, 400 mg, 500 mg or 600 mg doses twice daily for 5 days to treat virus infection.

[7] = system: H1N1 A/PR/8/34 (PR8) virus; assay: microbe, parasite or virus in culture; format: cell-based, influenza A virus; conditions: Influenza A virus, MDCK, 24 h
[8] = system: Respiratory syncytial virus; assay: Activity against other respiratory viruses: Respiratory syncytial virus; format: cell-based; conditions: human respiratory syncytial virus
Rhinovirus = assay: Activity against other respiratory viruses: Rhinovirus; format: cell-based, human rhinovirus; conditions: Enterovirus
Parainfluenza = assay: Activity against other respiratory viruses: Parainfluenza; format: cell-based
[9] = system: viral hemagglutinin (HA0); format: cell-based, influenza A virus; conditions: for HA0 maturation in other host cells and strains: WSN in A549 cells, A/Ck and PR8 in MDCK cells
MDCK cells [10] = assay: Host protein synthesis, eIF2α phosphorylation and Grp78/BiP in MDCK cells; format: cell-based, canine
Procedure: Metabolic labeling, analysis of protein synthesis and Western Blot Mock-infected or influenza virus-infected cells were labeled with 10 μCi/ml of [35S]-methionine-cysteine ([35S]-Met/Cys, Redivue Pro-Mix 35S in vitro cell-labeling mix; GE Healthcare) for the indicated times after 30 min. starvation in methionine/cysteine-free medium. For pulse/chase experiments, cells were labeled [35S]-Met/Cys (100 μCi/ml) for 15 min., after 30 min. starvation in methionine/cysteine-free medium. At the end of pulse, cells were chased in complete medium containing 10 mM cold methionine and 1 mM cycloheximide for different times in the absence or presence of TIZ. The pulse/chase were terminated by placing the cells on ice. After cell lysis in RIPA buffer (150 mM NaCl, 10 mM Tris-HCl pH 7.5, 4 mM EDTA, 1% Triton X-100, 600 mM KCl), containing 1 mM phenylmethylsulphonyl fluoride (PMSF) and a protease inhibitor cocktail (PIC; Roche Diagnostics GmbH), samples containing the same amount of radioactivity were separated by SDS/PAGE (3% stacking gel, 10% resolving gel) and processed for autoradiography, as described. Autoradiographic patterns were visualized and quantified in Typhoon-8600 Imager (Molecular Dynamics, Amersham Pharmacia Biotech) and images were acquired using ImageQuant software (Amersham Pharmacia Biotech) (MDP analysis).
For Western blot analysis, cells were lysed with cold high-salt extraction (HSB) buffer containing 2 mM dithiothreitol (DTT), 1 mM PMSF, 1 mM orthovanadate, 20 mM β-glycerophosphate, 1 mM p-nitrophenyl phosphate (pNPP) and PIC, or with RIPA buffer, containing 1 mM PMSF and PIC. […] Quantitative evaluation of proteins was determined by Versadoc-1000 analysis using the Quantity One software program, available through BIO-RAD Laboratories.

[11] = system: H3N2 A/Firenze/7/03 (A/FI); format: cell-based, influenza A virus; conditions: MDCK cells, 10 μg/ml TIZ
[12] = system: influenza A virus (PR8 in U937 and Jurkat, WSN in A549 cells); assay: Influenza A virus replication in human cells (U937, Jurkat, A549); format: cell-based; conditions: monocytic U937, T-lymphocytic Jurkat and alveolar type II-like A549 cells, read-out: EC50, inhibition of influenza A virus replication in human cells
PR8 virus = format: cell-based, influenza A virus
[13] = system: human low-density lipoprotein receptor (LDLR); assay: Plasma membrane targeting of LDLR in transfected MDCK cells; format: cell-based; conditions: LDLR-A18-GFP transfected MDCK cells, TIZ 10 μg/ml for 16 h
Excerpt: For transfection experiments, MDCK cells plated in LabTekII coverglass chambers (Nunch-Thermo Fisher Scientific Inc.) were transiently transfected with green fluorescent protein (GFP)-tagged internalization-defective human low-density lipoprotein receptor (hLDLR) mutant (LDLR-A18-GFP plasmid, kindly provided by E. Rodriguez-Boulan, Cornell University New York, NY), using Lipofectamine 2000 (Invitrogen) according to the manufacturer's instructions.
For detection of plasma membrane targeting of human low-density lipoprotein receptor (hLDLR), MDCK cells plated in coverglass chambers were transiently transfected with GFPtagged internalization-defective hLDLR mutant (LDLR-A18-GFP plasmid) and, after 8 h, treated with TIZ (10 μg/ml) or vehicle for the following 16 h. After blocking protein synthesis with 100 μg/ml cycloheximide (Sigma-Aldrich) for 1 h, plasma membranes were stained using CellMask™ Orange plasma membrane stain (Molecular Probes, Invitrogen). After staining, cells were examined using a Leica DM-IL fluorescence microscope equipped with UV excitation filters. The images were captured with a Leica DC-300 camera using Leica Image-Manager500 software.

[14] = system: influenza B virus, B/Parma/3/04; format: cell-based; conditions: B/Parma/3/04 influenza B, MDCK cells, 10 μg/ml TIZ
[15] = target: viral hemagglutinin (HA0) (Influenza A virus, UniProt P03452); format: cell-based
viral hemagglutinin (HA0) (Influenza A virus, UniProt P03452), sequence (P03452 18-565 limits assumed): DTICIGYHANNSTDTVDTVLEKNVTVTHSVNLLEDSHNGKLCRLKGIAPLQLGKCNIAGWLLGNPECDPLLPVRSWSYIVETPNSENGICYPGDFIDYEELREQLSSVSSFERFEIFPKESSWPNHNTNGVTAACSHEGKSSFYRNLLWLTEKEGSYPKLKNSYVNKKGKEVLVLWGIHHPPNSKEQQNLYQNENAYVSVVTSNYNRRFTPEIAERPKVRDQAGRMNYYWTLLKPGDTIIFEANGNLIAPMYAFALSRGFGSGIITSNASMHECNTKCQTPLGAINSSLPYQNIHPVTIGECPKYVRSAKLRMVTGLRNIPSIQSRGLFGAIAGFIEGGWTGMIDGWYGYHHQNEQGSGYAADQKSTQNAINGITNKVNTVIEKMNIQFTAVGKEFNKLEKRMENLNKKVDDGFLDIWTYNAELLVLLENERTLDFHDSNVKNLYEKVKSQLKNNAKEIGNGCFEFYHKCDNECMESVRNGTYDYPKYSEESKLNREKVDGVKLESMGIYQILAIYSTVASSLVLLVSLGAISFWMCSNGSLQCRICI

[16] = MDCK, 24 h, read-out: EC50, inhibition of virus replication
[17] = PR8, MDCK cells, read-out: Virus Yield EC50

## CC(=O)Oc1ccccc1C(=O)Nc1ncc([N+](=O)[O-])s1 [Compound 1, nitazoxanide]
Adenovirus
  EC50: 0.2 µg/mL (≈ 0.651 µM)
H1N1 A/PR/8/34 (PR8); [16]
  EC50: 1 µg/mL
H1N1 A/PR/8/34 (PR8); MDCK, PR8 virus, separate studies, read-out: EC50 (molar equivalent)
  EC50: 3.3 µM
H1N1 A/PR/8/34 (PR8); [17]
  EC50: 1 µg/mL
H1N1 A/PR/8/34 (PR8); PR8, MDCK cells
  EC90: 7 µg/mL (≈ 22.8 µM)
H1N1 A/PR/8/34 (PR8)
  antiviral activity against PR8, overall rating: potent and selective
MDCK cells [1]
  Toxicity LD50 (MTT): >50 µg/mL
[2]
  CC50: > 50 µg/mL
[3]
  EC50: 1 µg/mL (≈ 3.25 µM)
[4]; read-out: EC50 of NTZ in the experiments with zanamivir
  EC50: 0.66 µg/mL
[4]; read-out: EC50 of NTZ in the experiments with zanamivir (molar equivalent)
  EC50: ~2.2 µM
[4]; Nitazoxanide 0.1 μg/ml
  PR8 Yield: 48 HAU/ml
[4]; Nitazoxanide 1 μg/ml
  PR8 Yield: 16 HAU/ml
Coronavirus
  EC50: 1 µg/mL (≈ 3.25 µM)
[5]; influenza-like illness, FIG. 13
  respiratory symptoms, Day 7 Physical Exam: reduces respiratory symptoms
[5]; subjects not positive for Adenovirus, RSV, Influenza A, Parainfluenza 1, FIG. 12
  resolution of symptoms associated with influenza-like illness: can resolve symptoms
[5]; twice daily for 5 days vs placebo, patients mostly negative for Adenovirus, RSV, Influenza A, Parainfluenza 1
  treatment of patients with influenza like illness: has the ability to treat patients
[6]
  CC50: > 50 µg/mL
[6]; Adenovirus line of Table 3
  CC50: >50 µg/mL
[6]; Coronavirus line of Table 3
  CC50: >50 µg/mL
[6]; Respiratory syncytial virus line of Table 3
  CC50: >50 µg/mL
[6]; Rhinovirus line of Table 3
  CC50: >50 µg/mL
A/WSN/33 (WSN)
  EC50: 0.5 µg/mL (≈ 1.63 µM)
influenza
  treatment of influenza in clinical trials: has the ability to treat influenza
[7]; read-out: EC50 of NTZ in the experiments with oseltamivir
  EC50: 1 µg/mL
[7]; read-out: EC50 of NTZ in the experiments with oseltamivir (molar equivalent)
  EC50: 3.3 µM
[8]
  EC50: 0.5 µg/mL (≈ 1.63 µM)
Rhinovirus
  EC50: > 10 µg/mL
Parainfluenza
  EC50: 0.5 µg/mL (≈ 1.63 µM)
[9]
  HA0 maturation in other host cells and strains: caused similar alterations

## O=C(Nc1ncc([N+](=O)[O-])s1)c1ccccc1O [Compound 2, tizoxanide]
H1N1 A/PR/8/34 (PR8); H1N1 PR8, MDCK cells, 10 μg/ml TIZ, m.o.i. 10 or 0.001 ffu/cell
  effect on virus replication under multi- and single-step virus growth: dramatic block
H1N1 A/PR/8/34 (PR8); [16]
  EC50: 1 µg/mL
H1N1 A/PR/8/34 (PR8); [17]
  EC50: 1 µg/mL
H1N1 A/PR/8/34 (PR8); PR8, MDCK cells
  EC90: 9 µg/mL (≈ 33.9 µM)
H1N1 A/PR/8/34 (PR8)
  antiviral activity against PR8, overall rating: potent and selective
MDCK cells [1]
  Toxicity LD50 (MTT): >50 µg/mL
[2]
  CC50: > 50 µg/mL
[3]
  EC50: 0.5 µg/mL (≈ 1.89 µM)
MDCK cells [10]; MDCK cells
  expression of Grp78/BiP (unfolded protein response marker): did not induce the expression
MDCK cells [10]; [35S]-Met/Cys incorporation, 10 μg/ml TIZ
  host protein synthesis: did not inhibit host protein synthesis
MDCK cells [10]; uninfected or PR8-infected cells
  phosphorylation of eukaryotic initiation factor 2α (eIF2-α): did not affect phosphorylation
A/WSN/33 (WSN)
  EC50: 0.5 µg/mL (≈ 1.89 µM)
[11]
  inhibition of virus replication: very effective
[12]
  EC50: 0.3 µg/mL (≈ 1.13 µM)
PR8 virus
  effect on influenza virus replication: had no effect
PR8 virus; single administration after virus adsorption, 10 μg/ml, PR8, MDCK cells
  time after infection for which a single administration inhibits virus replication: at least 48 h
PR8 virus; treatment of cells only during the adsorption period
  effect on virus replication: did not inhibit virus replication
[13]
  plasma membrane targeting of LDLR: did not inhibit plasma membrane targeting of LDLR
[14]
  inhibition of virus replication: very effective
[9]; PR8-infected cells, 24 h p.i.
  viral proteins in purified virions from supernatant: could not be detected
[9]
  HA0 maturation in other host cells and strains: able to inhibit HA0 maturation
[15]
  Endo-H sensitivity of HA0: remained sensitive to digestion
  HA0 glycosylation (glucosamine, mannose incorporation): did not decrease glucosamine and actually increased mannose incorporation
  HA0 trimer formation: did not prevent HA0 ability to form trimers
  change in influenza virus protein synthesis pattern (HA0 band): disappearance of a band of approximately 79 kDa
  intracellular HA0 levels / accumulation: did not reduce intracellular HA0 levels
  plasma membrane levels of viral hemagglutinin: dramatically decreased
